In patent publication US12427134B2, “Methods of reducing the risk of cardiovascular events in a subject with atrial fibrillation and/or atrial flutter” (priority 2019, dated 2025):

System: hypertriglyceridemic patients with cardiovascular disease or at high risk for cardiovascular disease
Test: REDUCE-IT: total (first and subsequent/recurrent) ischemic events analyses (negative binomial, Andersen-Gill, Wei-Lin-Weissfeld, joint frailty)
Assay type: in vivo, human
Conditions: for Cardiovascular Death, HR (95% CI) / Non-fatal Cardiovascular Event, HR (95% CI): joint frailty model; for Key secondary composite endpoint, HR (95% CI) / Primary composite endpoint, HR (95% CI): modified WLW
Protocol: The primary outcome for the study was total recurrent events consisting of the composite of cardiovascular death, nonfatal myocardial infarction, nonfatal stroke, coronary revascularization, or hospitalization for unstable angina. Recurrent event analyses were also performed for the key secondary endpoint, a composite of cardiovascular death, non fatal myocardial infarction, or non-fatal stroke. For each of these composite endpoints, the effects of icosapent ethyl in the secondary and primary prevention strata were examined separately.
Demographic and baseline disease characteristics are presented using frequencies and percentages for categorical variables and medians with interquartile ranges for continuous variables. Between treatment group comparisons were derived using the chi-square test for categorical variables and Wilcoxon rank test for continuous variables. All clinical endpoint events used in the efficacy analyses were adjudicated by an independent Clinical Endpoint Committee (CEC) who were blinded to the treatment assignment. Since the primary efficacy endpoint was the time from randomization to the first occurrence of any component of the composite endpoint, and recurrence of such events within each patient is possible, a pre-specified analysis using a Cox proportional-hazard with the counting-process formulation of Andersen and Gill was performed to model the first and all recurrent cardiovascular events. Hazard ratios (HR) and corresponding 95% confidence intervals (CI) are reported from this model. In addition, as a marginal model and an extension of survival models based on the Cox proportional hazard model, the modified Wei-Lin-Weissfeld (WLW) method for analysis of recurrent events in the presence of deaths was carried out as a supportive analysis. In addition, as pre-specified, a recurrent event analysis using the Andersen-Gill and Wei-Lin-Weissfeld methods were carried out for the individual primary event components other than CV death. Though not pre-specified, additional recurrent event analyses were performed for the key secondary endpoint, which is a composite of CV death, non-fatal MI, or non-fatal stroke, and for the primary endpoint and the key secondary endpoint in the primary and secondary prevention strata to explore further the consistency of clinical benefit of icosapent ethyl. In subgroup analyses of the two cardiovascular risk strata (i.e., primary and secondary prevention), site-level discrepancies in cardiovascular risk group assignment occurring at entry and detected during the study (1.8%) were adjusted to conform with documented medical history data prior to randomization. All efficacy analyses were performed according to the intention-to-treat principle. All tests were based on a 2-sided nominal significance level of 5% with no adjustments for multiple comparisons.
The following study was a multi-center, placebo-controlled clinical trial the details of which are described above in Example 1, the REDUCE-IT design. […] The main outcomes were total primary composite endpoint events defined as cardiovascular death, nonfatal myocardial infarction, nonfatal stroke, coronary revascularization, or hospitalization for unstable angina and total key secondary composite endpoint events defined as cardiovascular death, nonfatal myocardial infarction, or nonfatal stroke. In the context of this study, total events refer to any first event as well as any subsequent event. Differences in total events were determined using other statistical models, including Andersen-Gill, Wei-Lin-Weisfeld (Li and Lagakos), both pre-specified, and a post hoc and joint-frailty analysis.
For the present prespecified analysis, the primary outcome was the total of first plus subsequent ischemic events consisting of the composite of cardiovascular death, nonfatal myocardial infarction, nonfatal stroke, coronary revascularization, or hospitalization for unstable angina. […]

[1] = Andersen-Gill (I), adjusted, full dataset
[2] = Andersen-Gill (I), adjusted, reduced dataset
[3] = Andersen-Gill (I), unadjusted, full dataset
[4] = Andersen-Gill (I), unadjusted, reduced dataset
[5] = Andersen-Gill (II), adjusted, full dataset
[6] = Andersen-Gill (II), adjusted, reduced dataset
[7] = Andersen-Gill (II), unadjusted, full dataset
[8] = Andersen-Gill (II), unadjusted, reduced dataset
[9] = as summarised in the Example 6 conclusion
[10] = including same-day recurrent events, ITT, denominator total number of events in category
[11] = key secondary endpoint, adjusted, reduced dataset
[12] = key secondary endpoint, unadjusted, reduced dataset
[13] = primary endpoint, adjusted, reduced dataset
[14] = primary endpoint, unadjusted, reduced dataset
[15] = first event, adjusted, full dataset
[16] = first event, adjusted, reduced dataset
[17] = first event, unadjusted, full dataset
[18] = first event, unadjusted, reduced dataset
[19] = second event, adjusted, full dataset
[20] = second event, adjusted, reduced dataset
[21] = second event, unadjusted, full dataset
[22] = second event, unadjusted, reduced dataset
[23] = third event, adjusted, full dataset
[24] = third event, adjusted, reduced dataset
[25] = third event, unadjusted, full dataset
[26] = third event, unadjusted, reduced dataset
[27] = negative binomial, adjusted, full dataset
[28] = negative binomial, adjusted, reduced dataset
[29] = negative binomial, unadjusted, full dataset
[30] = negative binomial, unadjusted, reduced dataset
[31] = per 100 patients treated for five years
[32] = per 1000 patients treated for five years
[33] = primary composite endpoint, after reduction, share of overall events in category
[34] = total events including same-day recurrent events, ITT, denominator total number of events in category

CC/C=C\C/C=C\C/C=C\C/C=C\C/C=C\CCCC(=O)OCC [AMR101, eicosapentaenoic acid ethyl ester]
Total key secondary composite endpoint events, HR (95% CI) [1]: 0.71
Total primary composite endpoint events, HR (95% CI) [1]: 0.68
Total key secondary composite endpoint events, HR (95% CI) [2]: 0.72
Total primary composite endpoint events, HR (95% CI) [2]: 0.69
Total key secondary composite endpoint events, HR (95% CI) [3]: 0.71
Total primary composite endpoint events, HR (95% CI) [3]: 0.68
Total key secondary composite endpoint events, HR (95% CI) [4]: 0.72
Total primary composite endpoint events, HR (95% CI) [4]: 0.69
Total key secondary composite endpoint events, HR (95% CI) [5]: 0.71
Total primary composite endpoint events, HR (95% CI) [5]: 0.68
Total key secondary composite endpoint events, HR (95% CI) [6]: 0.72
Total primary composite endpoint events, HR (95% CI) [6]: 0.69
Total key secondary composite endpoint events, HR (95% CI) [7]: 0.71
Total primary composite endpoint events, HR (95% CI) [7]: 0.68
Total key secondary composite endpoint events, HR (95% CI) [8]: 0.72
Total primary composite endpoint events, HR (95% CI) [8]: 0.69
Total key secondary endpoints, number of events (Example 2, overall, 861 with placebo): 590
Total key secondary endpoint events, rate ratio (Example 3): 0.72
Total key secondary endpoint events, rate ratio [9]: 0.71
Total primary endpoint events, rate ratio [9]: 0.69
Key Secondary Endpoint Events: Others, % [10]: (52.9) %
Key Secondary Endpoint Events: ≥1 event, % [10]: (43.1) %
Key Secondary Endpoint Events: ≥2 events, % [10]: (37.9) %
Key Secondary Endpoint Events: ≥3 events, % [10]: (35.1) %
Key Secondary Endpoint Events: ≥4 events, % [10]: (42.9) %
Primary Endpoint Events: Others, % [10]: (35.0) %
Primary Endpoint Events: ≥1 event, % [10]: (43.9) %
Primary Endpoint Events: ≥2 events, % [10]: (39.2) %
Primary Endpoint Events: ≥3 events, % [10]: (35.3) %
Primary Endpoint Events: ≥4 events, % [10]: (27.9) %
Cardiovascular Death, HR (95% CI) [11]: 0.79
Non-fatal Cardiovascular Event, HR (95% CI) [11]: 0.68
Cardiovascular Death, HR (95% CI) [12]: 0.79
Non-fatal Cardiovascular Event, HR (95% CI) [12]: 0.68
Cardiovascular Death, HR (95% CI) [13]: 0.80
Non-fatal Cardiovascular Event, HR (95% CI) [13]: 0.67
Cardiovascular Death, HR (95% CI) [14]: 0.80
Non-fatal Cardiovascular Event, HR (95% CI) [14]: 0.66
Key secondary endpoint: fatal events, % (key secondary composite endpoint, after reduction, share of overall events in category): 45.0%
Key secondary endpoint: total events before reduction, % (key secondary composite endpoint, before reduction, share of overall events in category): 42.0%
Key secondary composite endpoint, HR (95% CI) [15]: 0.74
Primary composite endpoint, HR (95% CI) [15]: 0.75
Key secondary composite endpoint, HR (95% CI) [16]: 0.74
Primary composite endpoint, HR (95% CI) [16]: 0.75
Key secondary composite endpoint, HR (95% CI) [17]: 0.74
Primary composite endpoint, HR (95% CI) [17]: 0.76
Key secondary composite endpoint, HR (95% CI) [18]: 0.74
Primary composite endpoint, HR (95% CI) [18]: 0.76
Key secondary composite endpoint, HR (95% CI) [19]: 0.75
Primary composite endpoint, HR (95% CI) [19]: 0.68
Key secondary composite endpoint, HR (95% CI) [20]: 0.75
Primary composite endpoint, HR (95% CI) [20]: 0.68
Key secondary composite endpoint, HR (95% CI) [21]: 0.75
Primary composite endpoint, HR (95% CI) [21]: 0.69
Key secondary composite endpoint, HR (95% CI) [22]: 0.75
Primary composite endpoint, HR (95% CI) [22]: 0.69
Key secondary composite endpoint, HR (95% CI) [23]: 0.79
Primary composite endpoint, HR (95% CI) [23]: 0.70
Key secondary composite endpoint, HR (95% CI) [24]: 0.79
Primary composite endpoint, HR (95% CI) [24]: 0.69
Key secondary composite endpoint, HR (95% CI) [25]: 0.79
Primary composite endpoint, HR (95% CI) [25]: 0.70
Key secondary composite endpoint, HR (95% CI) [26]: 0.79
Primary composite endpoint, HR (95% CI) [26]: 0.69
Total primary endpoint events, rate ratio (negative binomial model, Example 3): 0.70
Total key secondary composite endpoint events, HR (95% CI) [27]: 0.71
Total primary composite endpoint events, RR (95% CI) [27]: 0.69
Total key secondary composite endpoint events, RR (95% CI) [28]: 0.72
Total primary composite endpoint events, RR (95% CI) [28]: 0.70
Total key secondary composite endpoint events, RR (95% CI) [29]: 0.71
Total primary composite endpoint events, RR (95% CI) [29]: 0.67
Total key secondary composite endpoint events, RR (95% CI) [30]: 0.71
Total primary composite endpoint events, RR (95% CI) [30]: 0.68
Total key secondary endpoint events, HR (overall): 0.71
Cardiovascular deaths that could be prevented [31]: 1
Coronary revascularizations that could be prevented [31]: 8
Episodes of unstable angina that could be prevented [31]: 2
Myocardial infarctions that could be prevented [31]: 4
Strokes that could be prevented [31]: 1
Cardiovascular deaths that could be prevented [32]: 12
Coronary revascularizations that could be prevented [32]: 76
Episodes of hospitalization for unstable angina that could be prevented [32]: 16
Myocardial infarctions that could be prevented [32]: 42
Strokes that could be prevented [32]: 14
Primary endpoint: fatal events, % [33]: (45.0) %
Primary endpoint: total events after reduction, % [33]: (41.0) %
Total key secondary endpoint events, HR (primary prevention stratum): 0.71
Total key secondary endpoint events, HR (secondary prevention stratum): 0.70
Key Secondary Endpoint Events, % [34]: (42.0) %
Primary Endpoint Events, % [34]: (40.7) %
